Experimental data as given in PubChem BioAssay AID1963435 (Molecular Pharmacology Branch, DTP, NCI, 2024).

Test system: PANC-1 complex spheroid growth, percent test/control
Assay: Anticancer human tumor PANC-1 cell line growth inhibition [Asc];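 further: spheroids exposed to agents for 7 days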;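 on viability, T/C: percent viability relative to DMSO vehicle wells taken as 100%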
Conditions: for IC50: curve of first compound; for viability, T/C: stronger effect = lower value; active means viability on the fitted dose curve at most 10% of control; inactive means the rest
In short: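 Concentration series start at each agent's clinical Cmax, or at 10 microM when none is established, and drop in half-log steps; agents are applied alone or together to complex spheroids built with HUVEC and hMSC.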

[1] = second compound 0.0316 µM, first compound 0.00316 µM
[2] = second compound 0.0316 µM, first compound 0.01 µM
[3] = second compound 0.0316 µM, first compound 0.0316 µM
[4] = second compound 0.0316 µM, first compound 0.1 µM
[5] = second compound 0.1 µM, first compound 0.00316 µM
[6] = second compound 0.1 µM, first compound 0.01 µM
[7] = second compound 0.1 µM, first compound 0.0316 µM
[8] = second compound 0.1 µM, first compound 0.1 µM
[9] = second compound 0.316 µM, first compound 0.00316 µM
[10] = second compound 0.316 µM, first compound 0.01 µM
[11] = second compound 0.316 µM, first compound 0.0316 µM
[12] = second compound 0.316 µM, first compound 0.1 µM
[13] = second compound 1 µM, first compound 0.00316 µM
[14] = second compound 1 µM, first compound 0.01 µM
[15] = second compound 1 µM, first compound 0.0316 µM
[16] = second compound 1 µM, first compound 0.1 µM

Cn1ncnc1[C@H]1c2n[nH]c(=O)c3cc(F)cc(c23)N[C@@H]1c1ccc(F)cc1 + Cc1c(S(C)(=O)=O)c(-c2cc(F)cc(N3CCN(c4ccc(NS(=O)(=O)c5ccc(NC(CCN6CCC(C(=O)OCCCP(=O)(O)O)CC6)CSc6ccccc6)c(S(=O)(=O)C(F)(F)F)c5)cc4)CC3)c2)c(-c2ccc(Cl)cc2)n1C(C)C
inactive: viability, T/C (second compound 0.0316 µM, first compound 0.000316 µM) 101% | viability, T/C (second compound 0.0316 µM, first compound 0.001 µM) 88.4% | viability, T/C [1] 98.5% | viability, T/C [2] 102% | viability, T/C [3] 110% | viability, T/C [4] 101% | viability, T/C (second compound 0.1 µM, first compound 0.000316 µM) 96.7% | viability, T/C (second compound 0.1 µM, first compound 0.001 µM) 103% | viability, T/C [5] 93.5% | viability, T/C [6] 108% | viability, T/C [7] 108% | viability, T/C [8] 103% | viability, T/C (second compound 0.316 µM, first compound 0.000316 µM) 109% | viability, T/C (second compound 0.316 µM, first compound 0.001 µM) 108% | viability, T/C [9] 106% | viability, T/C [10] 106% | viability, T/C [11] 104% | viability, T/C [12] 110% | viability, T/C (second compound 1 µM, first compound 0.000316 µM) 105% | viability, T/C (second compound 1 µM, first compound 0.001 µM) 99.3% | viability, T/C [13] 105% | viability, T/C [14] 106% | viability, T/C [15] 103% | viability, T/C [16] 109% | viability, T/C (second compound 3.16 µM, first compound 0.000316 µM) 105% | viability, T/C (second compound 3.16 µM, first compound 0.001 µM) 102% | viability, T/C (second compound 3.16 µM, first compound 0.00316 µM) 107% | viability, T/C (second compound 3.16 µM, first compound 0.01 µM) 114% | viability, T/C (second compound 3.16 µM, first compound 0.0316 µM) 112% | viability, T/C (second compound 3.16 µM, first compound 0.1 µM) 93.5% | viability, T/C (second compound 10 µM, first compound 0.000316 µM) 160% | viability, T/C (second compound 10 µM, first compound 0.001 µM) 176% | viability, T/C (second compound 10 µM, first compound 0.00316 µM) 147% | viability, T/C (second compound 10 µM, first compound 0.01 µM) 167% | viability, T/C (second compound 10 µM, first compound 0.0316 µM) 169% | viability, T/C (second compound 10 µM, first compound 0.1 µM) 139%
> 100 nM: IC50 (second compound 0.0316 µM) | IC50 (second compound 0.1 µM) | IC50 (second compound 0.316 µM) | IC50 (second compound 1 µM) | IC50 (second compound 3.16 µM) | IC50 (second compound 10 µM)

CCN1CCN(Cc2ccc(Nc3ncc(F)c(-c4cc(F)c5nc(C)n(C(C)C)c5c4)n3)nc2)CC1 + CNC(C)C(=O)NC1CN(S(=O)(=O)c2cccc(S(=O)(=O)N3CCC4CCC(C(=O)NC(c5ccccc5)c5ccccc5)N4C(=O)C(NC(=O)C(C)NC)C3)c2)CCC2CCC(C(=O)NC(c3ccccc3)c3ccccc3)N2C1=O
inactive: viability, T/C (second compound 0.00316 µM, first compound 0.00316 µM) 119% | viability, T/C (second compound 0.00316 µM, first compound 0.01 µM) 108% | viability, T/C (second compound 0.00316 µM, first compound 0.0316 µM) 105% | viability, T/C (second compound 0.00316 µM, first compound 0.1 µM) 117% | viability, T/C (second compound 0.00316 µM, first compound 0.316 µM) 129% | viability, T/C (second compound 0.00316 µM, first compound 1 µM) 143% | viability, T/C (second compound 0.01 µM, first compound 0.00316 µM) 95.1% | viability, T/C (second compound 0.01 µM, first compound 0.01 µM) 96.8% | viability, T/C (second compound 0.01 µM, first compound 0.0316 µM) 108% | viability, T/C (second compound 0.01 µM, first compound 0.1 µM) 116% | viability, T/C (second compound 0.01 µM, first compound 0.316 µM) 124% | viability, T/C (second compound 0.01 µM, first compound 1 µM) 127% | viability, T/C [1] 96% | viability, T/C [2] 101% | viability, T/C [3] 107% | viability, T/C [4] 112% | viability, T/C (second compound 0.0316 µM, first compound 0.316 µM) 116% | viability, T/C (second compound 0.0316 µM, first compound 1 µM) 136% | viability, T/C [5] 102% | viability, T/C [6] 102% | viability, T/C [7] 102% | viability, T/C [8] 97.4% | viability, T/C (second compound 0.1 µM, first compound 0.316 µM) 107% | viability, T/C (second compound 0.1 µM, first compound 1 µM) 118% | viability, T/C [9] 92.2% | viability, T/C [10] 91.8% | viability, T/C [11] 109% | viability, T/C [12] 105% | viability, T/C (second compound 0.316 µM, first compound 0.316 µM) 118% | viability, T/C (second compound 0.316 µM, first compound 1 µM) 129% | viability, T/C [13] 98.2% | viability, T/C [14] 98.2% | viability, T/C [15] 99.5% | viability, T/C [16] 96.5% | viability, T/C (second compound 1 µM, first compound 0.316 µM) 109% | viability, T/C (second compound 1 µM, first compound 1 µM) 113%
> 1000 nM: IC50 (second compound 0.00316 µM) | IC50 (second compound 0.01 µM) | IC50 (second compound 0.0316 µM) | IC50 (second compound 0.1 µM) | IC50 (second compound 0.316 µM) | IC50 (second compound 1 µM)
